Legend:
[1] = Stability in human blood plasma; details: 10 μM in pooled human blood plasma, incubated 4 hours at 37° C.
Description: To assess the blood plasma stability of the drug candidates, we used pooled human blood plasma taken from ten healthy donors. The initial solution (10 Mm in DMSO) was diluted with pooled blood plasma to 10 μM (test solution). The test solution had been incubated for 4 hours in a dry block heater at 37° C. We determined peak areas of the compounds corresponding to the start of the test (before incubating) and the end of the test (after incubating in a dry block heater at 37° C.) by HPLC using Agilent1200 chromatograph (Agilent, USA) with preliminary protein precipitation with acetonitrile. We used gradient elution (1 mL/min flow rate). We determined amount of substance in the sample in % after incubation.
We evaluated the stability of the compounds.

[2] = Chemical stability in artificial gastric fluid (SGF without enzymes); details: 10 μM in SGF without enzymes, pH=1.4, 37° C.
[3] = test system: Mino (mantle cell lymphoma); experiment: Antiproliferative activity, Mino cells (Alamar Blue); format: cell-based; details: Homo sapiens, Table 10, 72 h, average of several tests
Description: (§1) Antiproliferative activity of BTK inhibitors was measured in cell-based bioassay on B-cells cultures: Mino (mantle cell lymphoma, ATCC® CRL-3000™), Z-138 (mantle cell lymphoma, ATCC® CRL-3001™) and DOHH2 (follicular lymphoma, Creative Bioarray CSC-C0219) using cell viability reagent Alamar Blue (Invitrogen, #DAL 1100). Cells were cultured in 10% FB S-supplemented (HyClone, #SH3008803/Gibco, #16140-071) RPMI-1640 (PanEco, #S330p) for at least 1 passage after thawing, washed with PBS and passaged in 96-well culture plates (Corning, #3599) with growth medium with 10% FBS (HyClone, #SH3008803/Gibco, #16140-071) and antibiotic (50 μg/ml of gentamicin (Biolot, #1.3.16))≈3*10^4 cells in 50 μl of medium per well.
(§2) The compounds were dissolved in DMSO and diluted with the assay medium to final concentrations ranging from […]. 150 μl of each diluted compound were then added to each well (final concentration of DMSO was less than 1%) and incubated at 37° C. in an incubator under 5% of CO2 for 72 h. After incubation, 20 μl of Alamar Blue reagent (Invitrogen, #DAL1100) were added to each well. The plates were shaked on an orbital shaker (Biosan, Latvia) and then incubated for 14-16 hours at 37° C. in the incubator.
(§3) The number of living cells were estimated, measuring the fluorescence signal at the excitation wavelength (REx) of 540 nm and the emission wavelength (λEm) of 590 nm on a microplate reader (Tecan Infinite M200Pro, Switzerland).
(§4) For each compound, IC50 was calculated using Magellan 7.2 software (Tecan, Switzerland) approximating experimental points by four-parameter logistic model with the optimization by Levenberg-Marquardt.

[4] = test system: Z-138 (mantle cell lymphoma); experiment: Antiproliferative activity, Z-138 cells (Alamar Blue); format: cell-based; details: Homo sapiens, Table 10, 72 h, average of several tests
Description: as §1, §2, §3, §4

[5] = General cytotoxicity on HepG2 cells (CC50; therapeutic index CC50 HepG2/IC50 Mino); format: cell-based; details: human, HepG2 cells (hepatocellular carcinoma); Table 10; 72 hours, Alamar Blue; average of several tests
Description: (§5) The CC50 values were determined in the test for General cytotoxicity on HepG2 cells (hepatocellular carcinoma, ATCC® HB-8065™). 2*10^4 cells (in 50 μl) per well were seeded in 96-well plates (Corning, #3599) in DMEM medium (PanEco, #S420p), after 24 h of incubation 150 μl of candidate compounds were added to each well in the range of final concentrations from 200 μM to 4 μM and the plate was incubated in a total volume of 200 μl for 72 hours. Viability of the cells was assessed using Alamar Blue dye (Invitrogen, #DAL 1100). CC50 was determined similarly (table 10).
(§6) The relationship between toxic (CC50) and a therapeutic (IC50) effects of the dose is the therapeutic index, which can be expressed as the ratio between CC50 (HepG2) (general cytotoxicity of the candidate) and IC50 (Mino) (antiproliferative activity on the target cells): […]

[6] = test system: HepG2 cells (hepatocellular carcinoma); experiment: as above; format: cell-based; details: Table 10; therapeutic index
Description: as §5, §6

SMILES	Amount of substance in the sample, % (stability in human blood plasma) [1] [%]	Amount of substance in the sample in % (chemical stability) [2] [%]	also measured
C=CC(=O)N1CCC[C@@H](n2nc(-c3ccc(Oc4ccncc4)cc3)c3c(N)ncc(Cl)c32)C1 [BCD-BTK -139, (R)-1-(1-acryloylpiperidin-3-yl)-7-chloro-3-(4-(pyridin-4-yloxy)phenyl)-1H-pyrazolo[4,3-c]pyridin-4-amine]	87.1		
C=CC(=O)N1CCC[C@@H](n2nc(-c3ccc(C(=O)Nc4ccc(F)cn4)cc3)c3c(N)ncc(Cl)c32)C1 [BCD-BTK -237, 4-{4-amino-7-chloro-1-[(3R)-1-(prop-2-enoyl)piperidin-3-yl]-1H-pyrazolo[4,3-c]pyridin-3-yl}-N-(5-fluoropyridin-2-yl)benzamide]	95.5	100	
C=CC(=O)N1CCC[C@@H](n2nc(-c3ccc(C(=O)Nc4cc(C(F)(F)F)ccn4)cc3)c3c(N)ncc(Cl)c32)C1 [BCD-BTK -251, (R)-4-(1-(1-acryloylpiperidin-3-yl)-4-amino-7-chloro-1H-pyrazolo[4,3-c]pyridin-3-yl)-N-(4-(trifluoromethyl)pyridin-2-yl)benzamide]	89.2		
C=CC(=O)N1CCC[C@@H](n2nc(-c3ccc(C(=O)Nc4cc(C(F)(F)CCC)ccn4)cc3)c3c(N)ncc(Cl)c32)C1 [BCD-BTK -254, (R)-4-(1-(1-acryloylpiperidin-3-yl)-4-amino-7-chloro-1H-pyrazolo[4,3-c]pyridin-3-yl)-N-(4-(1,1-difluorobutyl)pyridin-2-yl)benzamide]	93.0		
C=CC(=O)N1CCC[C@@H](n2nc(-c3cnc(C(=O)Nc4cc(C(F)(F)CCC)ccn4)nc3)c3cncc(Cl)c32)C1 [BCD-BTK -292, (R)-5-(1-(1-acryloylpiperidin-3-yl)-7-chloro-1H-pyrazolo[4,3-c]pyridin-3-yl)-N-(4-(1,1-difluorobutyl)pyridin-2-yl)pyrimidine-2-carboxamide]	93.3		
C=CC(=O)N1CCC[C@@H](n2nc(-c3cnc(C(=O)Nc4cc(C(F)(F)CC)ccn4)nc3)c3cncc(Cl)c32)C1 [BCD-BTK -293, (R)-5-(1-(1-acryloylpiperidin-3-yl)-7-chloro-1H-pyrazolo[4,3-c]pyridin-3-yl)-N-(4-(1,1-difluoropropyl)pyridin-2-yl)pyrimidine-2-carboxamide]	85.7		
C=CC(=O)N1CCC[C@@H](n2nc(-c3cnc(-n4ccc(=O)c(C#N)c4)nc3)c3cncc(Cl)c32)C1 [BCD-BTK-206, (R)-1-(5-(1-(1-acryloylpiperidin-3-yl)-7-chloro-1H-pyrazolo[4,3-c]pyridin-3-yl)pyrimidin-2-yl)-4-oxo-1,4-dihydropyridine-3-carbonitrile]	87.6		
C=CC(=O)N1CCC[C@@H](n2nc(-c3cnc(-n4ccc(=O)c(C(N)=O)c4)nc3)c3cncc(Cl)c32)C1 [BCD-BTK-207, (R)-1-(5-(1-(1-acryloylpiperidin-3-yl)-7-chloro-1H-pyrazolo[4,3-c]pyridin-3-yl)pyrimidin-2-yl)-4-oxo-1,4-dihydropyridine-3-carboxamide]	82.6		
C=CC(=O)N1CCC[C@@H](n2nc(-c3ccc(-n4ccc(=O)c(C#N)c4)cc3)c3cncc(Cl)c32)C1 [BCD-BTK-208, (R)-1-(4-(1-(1-acryloylpiperidin-3-yl)-7-chloro-1H-pyrazolo[4,3-c]pyridin-3-yl)phenyl)-4-oxo-1,4-dihydropyridine-3-carbonitrile]	91.4		IC50 [3]: 21.5 µM; IC50 [4]: 32.2 µM; CC50 at 72 h [5]: 112 µM; CC50 (HepG2)/IC50 (Mino) [6]: 5.21
C=CC(=O)N1CCC[C@H]1Cn1nc(-c2ccc(Oc3ccncc3)cc2)c2cncc(Cl)c21 [BCD-BTK-263, (S)-1-(2-((7-chloro-3-(4-(pyridin-4-yloxy)phenyl)-1H-pyrazolo[4,3-c]pyridin-1-yl)methyl)pyrrolidin-1-yl)prop-2-en-1-one]	86.7	100	IC50 [3]: 20.6 µM; IC50 [4]: 35.2 µM; CC50 at 72 h [5]: > 50 µM; CC50 (HepG2)/IC50 (Mino) [6]: >2.42

Further lines, with some results ahead:

Amount of substance in the sample, % (stability in human blood plasma) [1] [%]	Amount of substance in the sample in % (chemical stability) [2] [%]	SMILES	also measured
87.3	100	C=CC(=O)N1CCC[C@@H](n2nc(-c3ccc(C(=O)Nc4cc(C(F)(F)CCC)ccn4)cc3)c3cncc(F)c32)C1 [BCD-BTK -247, (R)-4-(1-(1-acryloylpiperidin-3-yl)-7-fluoro-1H-pyrazolo[4,3-c]pyridin-3-yl)-N-(4-(1,1-difluorobutyl)pyridin-2-yl)benzamide]	
84.5		C=CC(=O)N1CCC[C@@H](n2nc(-c3ccc(C(=O)Nc4cccc(F)n4)cc3)c3c(N)ncc(Cl)c32)C1 [BCD-BTK -250, (R)-4-(1-(1-acryloylpiperidin-3-yl)-4-amino-7-chloro-1H-pyrazolo[4,3-c]pyridin-3-yl)-N-(6-fluoropyridin-2-yl)benzamide]	
85.2		C=CC(=O)N1CCC[C@@H](n2nc(-c3ccc(C(=O)Nc4cc(C(F)(F)CCC)ccn4)cc3)c3cncc(Cl)c32)C1 [BCD-BTK -252, (R)-4-(1-(1-acryloylpiperidin-3-yl)-7-chloro-1H-pyrazolo[4,3-c]pyridin-3-yl)-N-(4-(1,1-difluorobutyl)pyridin-2-yl)benzamide]	
100.0		CC#CC(=O)N1CCC[C@@H](n2nc(-c3ccc(C(=O)Nc4ccccn4)cc3)c3c(N)ncc(Cl)c32)C1 [BCD-BTK -295, (R)-4-(4-amino-1-(1-(but-2-ynoyl)piperidin-3-yl)-7-chloro-1H-pyrazolo[4,3-c]pyridin-3-yl)-N-(pyridin-2-yl)benzamide]	
90.8		C=CC(=O)N1CCC[C@@H](n2nc(-c3ccc(C(=O)Nc4ccc(F)cn4)cc3)c3cncc(Cl)c32)C1 [BCD-BTK-212, (R)-4-(1-(1-acryloylpiperidin-3-yl)-7-chloro-1H-pyrazolo[4,3-c]pyridin-3-yl)-N-(5-fluoropyridin-2-yl)benzamide]	IC50 [3]: 3.5 µM; IC50 [4]: 14.8 µM; CC50 at 72 h [5]: 28.1 µM; CC50 (HepG2)/IC50 (Mino) [6]: 8.01
100.0	100	CC#CC(=O)N1CC(Cn2nc(-c3ccc(C(=O)Nc4ccccn4)cc3)c3cncc(Cl)c32)C1 [BCD-BTK-267, 4-(1-((1-(but-2-ynoyl)azetidin-3-yl)methyl)-7-chloro-1H-pyrazolo[4,3-c]pyridin-3-yl)-N-(pyridin-2-yl)benzamide]	
95.4	100	CC#CC(=O)N1CCC[C@@H]1Cn1nc(-c2ccc(C(=O)Nc3ccccn3)cc2)c2cncc(Cl)c21 [BCD-BTK-269, (R)-4-(1-((1-(but-2-ynoyl)pyrrolidin-2-yl)methyl)-7-chloro-1H-pyrazolo[4,3-c]pyridin-3-yl)-N-(pyridin-2-yl)benzamide]	
96.2	100	CC#CC(=O)N1CCC[C@@H](Cn2nc(-c3ccc(C(=O)Nc4ccccn4)cc3)c3cncc(Cl)c32)C1 [BCD-BTK-278, (R)-4-(1-((1-(but-2-ynoyl)piperidin-3-yl)methyl)-7-chloro-1H-pyrazolo[4,3-c]pyridin-3-yl)-N-(pyridin-2-yl)benzamide]	
97.4	100	CC#CC(=O)N1CCC[C@H](Cn2nc(-c3ccc(C(=O)Nc4ccccn4)cc3)c3cncc(Cl)c32)C1 [BCD-BTK-283, (S)-4-(1-((1-(but-2-ynoyl)piperidin-3-yl)methyl)-7-chloro-1H-pyrazolo[4,3-c]pyridin-3-yl)-N-(pyridin-2-yl)benzamide]	
